Measurements from patent US6271416A, “Quinolinone derivative, method for preparing the same, and anti-allergic agent” (Dainippon Ink and Chemicals, Inc., priority 1997, dated 2001).

Tested on: homologous passive cutaneous anaphylaxis (PCA) reaction
Experiment: Effect on homologous passive cutaneous anaphylaxis (PCA) reaction in rats
Format: in vivo, rat (male wistar)
Details: Rattus norvegicus, 1 hour before induction; for inhibition in vivo at 100 mg/kg: test compounds, 100 mg/kg oral
Description: Effect on homologous passive cutaneous anaphylaxis (PCA) reaction in rats
This experimental animal model is caused by immediate type allergic reaction, namely, antigen-antibody reaction. In the following, the method of this pharmacological test will be explained.
Method: Male wistar rats (9 weeks old) were intradermally administered 0.05 ml of anti-serum against dinitrophenylated ascaris (DNP-As) into two sites on the shaved dorsal skin. 48 hours later, quinolinone derivatives (test compounds) suspended in 0.5% methylcellulose (MC) were given orally at a dose of 100 mg/kg to the animals. 1 hour after administration of Test compounds, the animals were induced anaphylaxis by injection of saline (1 ml) dissolving 1 mg of trinitrophenylated ascaris (TNP-As) and 5 mg of Evans Blue into the tail vein of the animals. 30 minutes after induction of anaphylaxis, animals were anesthetized by ether and killed by bleeding, and were flayed dorsal skin. The leakage of dye was assessed by measuring the diameter (mean of shortest and longest diameter) of the blue spot on the inside surface of dorsal skin. As vehicle control group, only 0.5% MC solution was administered orally, and as positive control group, Tranilast suspended in 0.5% MC were administered orally at a dose of 200 mg/kg to the animals with the same method as the test compounds groups. Each experimental group consisted of 5 rats. In the conditions of this experinent, it was considered that the compound, which inhibited PCA reaction by over forty (40) percent against that in vehicle control group, was evidently effective for immediate type allergy.
Inhibition (%)=(A-B)/A×100 (Equation 1)
A: leakage of dye in vehicle control group
B: leakage of dye in test compound group or positive control group

Question: `CCCCCCCCCCOC(=O)c1cccc2c1c(O)c(OCCCC)c(=O)n2C` [Compound 68, 5-decyloxycarbonyl-3-butoxy-4-hydroxy-1-methyl-2(1H)-quinolinone] was tested. Which inhibition in vivo at 100 mg/kg did it give?
Answer: 49%

Question: Which inhibition in vivo at 100 mg/kg does the source give for `CCCCCCCCOc1c(O)c2cccc(NC)c2n(C)c1=O` [Compound 86, 8-methylamino-3-octyloxy-4-hydroxy-1-methyl-2(1H)-quinolinone] here?
Answer: 53%

Question: How did the inhibition in vivo at 100 mg/kg turn out when `CCCCOc1c(O)c2cc(C(=O)OCC)ccc2n(C)c1=O` [Compound 80, 6-ethoxycarbonyl-3-butoxy-4-hydroxy-1-methyl-2(1H)-quinolinone] was run?
Answer: 41%

Question: With `CCCCOc1c(O)c2c(C(=O)OCC)cccc2n(C)c1=O` [Compound 38, 5-ethoxycarbonyl-3-butoxy-4-hydroxy-1-methyl-2(1H)-quinolinone] as the molecule, how does the inhibition in vivo at 100 mg/kg read?
Answer: 45%

Question: For `COc1c(O)c2c(O)cc(O)cc2n(C)c1=O` [Compound 36, 5,7-dihydroxy-3-methoxy-4-hydroxy-1-methyl-2(1H)-quinolinone], which inhibition in vivo at 100 mg/kg is on record?
Answer: 45%

Question: How did the inhibition in vivo at 100 mg/kg turn out when `CCCCCCCCOc1c(O)c2cccc(NC(=O)/C=C/c3cc(OC)c(O)c(OC)c3)c2n(C)c1=O` [Compound 79, 8-[(3,5-dimethoxy-4-hydroxycinnamoyl)amino]-3-octyloxy-4-hydroxy-1-methyl-2(1H)-quinolinone] was run?
Answer: 49%

Question: For `CCCCCCCCOc1cccc2c1c(O)c(OC)c(=O)n2C` [Compound 84, 5-octyloxy-3-methoxy-4-hydroxy-1-methyl-2(1H)-quinolinone], which inhibition in vivo at 100 mg/kg is on record?
Answer: 49%

Question: Which inhibition in vivo at 100 mg/kg does the source give for `CC(=O)Nc1ccc2c(c1)c(O)c(Oc1ccccc1)c(=O)n2C` [Compound 26, 6-acetylamino-3-phenoxy-4-hydroxy-1-methyl-2(1H)-quinolinone] here?
Answer: 39%

Question: With `CCCCCCCCOc1c(O)c2cc(NC(=O)/C=C/c3cc(OC)c(O)c(OC)c3)ccc2n(C)c1=O` [Compound 78, 6-[(3,5-dimethoxy-4-hydroxycinnamoyl)amino]-3-octyloxy-4-hydroxy-1-methyl-2(1H)-quinolinone] as the molecule, how does the inhibition in vivo at 100 mg/kg read?
Answer: 50%

Question: Which inhibition in vivo at 100 mg/kg does the source give for `COc1c(O)c2cc(NC/C=C(\C)CCC=C(C)C)ccc2n(C)c1=O` [Compound 52, 6-geranylamino-3-methoxy-4-hydroxy-1-methyl-2(1H)-quinolinone] here?
Answer: 49%

Question: `CCCCNc1cccc2c(O)c(OC/C=C(\C)CCC=C(C)C)c(=O)n(C)c12` [Compound 53, 8-butylamino-3-geranyloxy-4-hydroxy-1-methyl-2(1H)-quinolinone] was tested. Which inhibition in vivo at 100 mg/kg did it give?
Answer: 45%

Question: For `CCOc1c(O)c2c(N)cccc2n(C/C=C(\C)CCC=C(C)C)c1=O` [Compound 44, 5-amino-3-ethoxy-4-hydroxy-1-geranyl-2(1H)-quinolinone], which inhibition in vivo at 100 mg/kg is on record?
Answer: 42%

Question: `CCCCCCCCCCNc1ccc2c(c1)c(O)c(OC)c(=O)n2C` [Compound 49, 6-decylamino-3-methoxy-4-hydroxy-1-methyl-2(1H)-quinolinone] was tested. Which inhibition in vivo at 100 mg/kg did it give?
Answer: 50%

Question: How did the inhibition in vivo at 200 mg/kg (positive control, 200 mg/kg oral) turn out when `COc1ccc(/C=C/C(=O)Nc2ccccc2C(=O)O)cc1OC` [Tranilast, reference compound] was run?
Answer: 52%

Question: Which inhibition in vivo at 100 mg/kg does the source give for `CC(C)=CCC/C(C)=C/COc1c(O)c2cccc(N)c2n(C)c1=O` [Compound 45, 8-amino-3-geranyloxy-4-hydroxy-1-methyl-2(1H)-quinolinone] here?
Answer: 46%

Question: How did the inhibition in vivo at 100 mg/kg turn out when `CCCCCCCCOc1c(O)c2c(NC(=O)/C=C/c3cc(OC)c(O)c(OC)c3)cccc2n(C)c1=O` [Compound 77, 5-[(3,5-dimethoxy-4-hydroxycinnamoyl)amino]-3-octyloxy-4-hydroxy-1-methyl-2(1H)-quinolinone] was run?
Answer: 55%

Question: Which inhibition in vivo at 100 mg/kg does the source give for `CCCCCCOc1c(O)c2cccc(OCCCCCC)c2n(C)c1=O` [Compound 85, 3,8-dihexyloxy-4-hydroxy-1-methyl-2(1H)-quinolinone] here?
Answer: 50%

Question: For `CCCCCCCCn1c(=O)c(Oc2ccccc2)c(O)c2cc(-c3ccccc3)ccc21` [Compound 34, 6-phenyl-3-phenoxy-4-hydroxy-1-octyl-2(1H)-quinolinone], which inhibition in vivo at 100 mg/kg is on record?
Answer: 37%

Question: With `CCOc1c(O)c2c(N)cccc2n(C)c1=O` [Compound 23, 5-amino-3-ethoxy-4-hydroxy-1-methyl-2(1H)-quinolinone] as the molecule, how does the inhibition in vivo at 100 mg/kg read?
Answer: 40%

Question: Which inhibition in vivo at 100 mg/kg does the source give for `CCCCCCCCOc1c(O)c2ccc(NC(C)=O)cc2n(C)c1=O` [Compound 76, 7-acetylamino-3-octyloxy-4-hydroxy-1-methyl-2(1H)-quinolinone] here?
Answer: 51%

Question: Which inhibition in vivo at 100 mg/kg does the source give for `CCCCCCCCCCOc1ccc2c(c1)c(O)c(OC)c(=O)n2C` [Compound 54, 6-decyloxy-3-methoxy-4-hydroxy-1-methyl-2(1H)-quinolinone] here?
Answer: 50%

Question: `CCCCOc1c(O)c2cccc(C(=O)Oc3ccccc3)c2n(C)c1=O` [Compound 83, 8-phenoxycarbonyl-3-butoxy-4-hydroxy-1-methyl-2(1H)-quinolinone] was tested. Which inhibition in vivo at 100 mg/kg did it give?
Answer: 42%

Question: For `COc1c(O)c2cc(C/C=C(\C)CCC=C(C)C)ccc2n(C)c1=O` [Compound 61, 6-geranyl-3-methoxy-4-hydroxy-1-methyl-2(1H)-quinolinone], which inhibition in vivo at 100 mg/kg is on record?
Answer: 42%

Question: Which inhibition in vivo at 100 mg/kg does the source give for `Cn1c(=O)c(Oc2ccccc2)c(O)c2cc(N)ccc21` [Compound 24, 6-amino-3-phenoxy-4-hydroxy-1-methyl-2(1H)-quinolinone] here?
Answer: 42%
